According to article PMC5986788, “Succinate induces aberrant mitochondrial fission in cardiomyocytes through GPR91 signaling” (Cell Death & Disease, 2018):

Target: T1, G protein-coupled receptor-91 (GPR91) (Rattus norvegicus, UniProt Q6IYF9)
T1 construct: gene Sucnr1
Test: cell-based

T1 sequence (Q6IYF9 whole entry): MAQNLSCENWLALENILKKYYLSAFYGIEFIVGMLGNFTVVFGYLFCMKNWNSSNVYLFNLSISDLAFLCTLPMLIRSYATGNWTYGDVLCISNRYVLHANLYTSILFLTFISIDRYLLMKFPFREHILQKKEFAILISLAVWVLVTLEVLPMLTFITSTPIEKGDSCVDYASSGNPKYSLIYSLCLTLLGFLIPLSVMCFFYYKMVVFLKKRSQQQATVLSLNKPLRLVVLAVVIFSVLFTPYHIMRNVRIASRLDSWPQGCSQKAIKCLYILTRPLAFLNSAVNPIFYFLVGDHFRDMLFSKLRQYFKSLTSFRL

O=C(O)CCC(=O)O [succinate]
EC50: 154 µM
